We go through one compound from patent publication US11904051B2, “Shear stress sensitive liposomes” (Universität Basel, priority 2018, dated 2024).

Where “and” joins values, the source holds several entries; their conditions need not be identical. Equal values may be shown once.

A short description of this data set: SAXS measurement of liposomes under static conditions (glass capillary). As to conditions: static condition. The format is physicochemical. An excerpt:
The investigated q-range between 0:02 nm^−1 and 1:65 nm^−1 corresponds to real-space distances d between 314 and 3 nm and, therefore, covers almost the entire nanometer range relevant for the characterization of the liposomes. The diagrams in FIG. 11 show the radially integrated scattering signal of DPPC-DSPE/PEG (top panel) and Pad-PC-Pad (bottom panel) liposomes acquired in suitable glass capillaries.
Suitable models are often utilized in the interpretation of the scattering signal of the system investigated. Herein, the scattering curves of DPPC/DSPE-PEG and Pad-PC-Pad were both fitted using a decoupling approach, which allowed to factorize the total form factor as product of a cross section term for long dimension and a cross section term for shorter dimension (Porod et al., IV. Acta Physica Austriaca 1948, 2, 255-292). To fit the form factor related to the overall shape of DPPC/DSPE-PEG, a thin spherical shell model was used (Breÿler et al., Journal of Applied Crystallography 2015, 48, 1587-1598), whereas the intensity peak related to the bilayer was fitted using a function for a bilayer with a Gaussian electron density profile (Pabst et al., Journal of Applied Crystallography 2003, 36, 1378-1388; Pabst et al., Physical Review E 2000, 62, 4000). The model utilized to fit the bilayer provided the bilayer thickness as the distance head-to-head dhh between the two phospholipid heads and the standard deviation over the phoshpolipid heads.
To fit the form factor related to the overall shape of Pad-PC-Pad a thin ellipsoidal shell model was used (Olson et al., Biochimica et Biophysica Acta (BBA)—Biomembranes 1979, 557, 9-23). An eccentricity E of 0.43 was found. As for DPPC/DSPE-PEG, the intensity peak related to the phospholipid head-to-head distance dhh was fitted using a function for a bilayer with a Gaussian electron density profile (Pabst et al., Journal of Applied Crystallography 2003, 36, 1378-1388; Pabst et al., Physical Review E 2000, 62, 4000) and a normal distribution over dhh. […]

For the compound `CCCCCCCCCCCCCCCC(=O)NCC(CNC(=O)CCCCCCCCCCCCCCC)OP(=O)([O-])OCC[N+](C)(C)C` [Pad-PC-Pad, 1,3-palmitoylamido-1,3-deoxy-sn-glycero-2-phosphatidylcholine], the head-to-head distance dhh (bilayer Gauss electron density profile model) is 3.3±0.8 nm and 3.3 nm. Also, the “Radius of gyration Rg” value (glass capillary, flow rate 0) was 60.3 nm and 60.3 ± 0.4 nm. Besides, the “eccentricity ε” value (thin ellipsoidal shell model) is listed as 0.43.
